In test [1] the test system is IgE antibody present in the serum of a patient (latex-allergic). Kind of test: Latex epitope mapping (2) overlapping 10-residue peptides and (3) alanine/glycine scanning on peptide arrays. The conditions noted are these: for confirmed as epitope binding to IgE antibodies: short partial sequences of the 15-residue epitopes. The format is binding, human. How it is done:
On the basis of the sequences (SEQ ID NOs: 5, 25, 35, 68 and 83) of the peptides bound to an IgE antibody in serum in a patient-specific manner as described above in (A), a library of overlapping peptide fragments (length: 10 amino acids) was prepared using the sequences of the peptides and sequences in which sequences were added so as to flank each peptide in the amino acid sequences of allergy components comprising the sequences of the peptide. Epitope mapping was carried out using the library.
The peptides to be synthesized were shifted by one amino acid.
The library was prepared by the same procedure as described above in (A), and the presence or absence of binding of an IgE antibody present in the serum of a patient to each peptide fragment was measured by the same technique as described above. Numeric values determined from images obtained as a result of carrying out only the procedures (1) and (4) to (6) described above in the subsection titled (3) Spotting of cellulose-bound peptide solution were used as control values. The control value of each peptide was subtracted from numeric values determined from images obtained from results about the serum of patients, and the obtained value of the difference was compared with values of the peptides serving as the basis of overlapping.
Chemiluminescence intensity in images obtained by measurement was converted into a numeric value in the same manner as in (A). Numeric values determined from images obtained as a result of carrying out only the procedures (1) and (4) to (6) described above in the subsection titled (3) Spotting of cellulose-bound peptide solution (secondary antibody measurement values) were used as control values. The control value of each peptide was subtracted from numeric values determined from images obtained from results about the serum of patients. When values obtained using the sequences (SEQ ID NOs: 5, 25, 35, 68 and 83) serving as the basis of overlapping were defined as 100%, it was determined that: a peptide having a value of the difference that was less than 30% had no binding activity against IgE antibodies; a peptide having a value of the difference that was 30% or more and less than 50% had binding activity, albeit poor, against IgE antibodies; a peptide having a value of the difference that was 50% or more and less than 70% had binding activity, albeit somewhat poor, against IgE antibodies; and a peptide having a value of the difference that was 70% or more had equivalent or good binding activity against IgE antibodies and was thus a peptide had remaining binding activity against IgE antibodies.
From the amino acid sequences identified above in (A), a library of peptide fragments in which amino-terminal amino acids were substituted one by one by alanine (or glycine when the original amino acid was alanine) according to a technique called alanine/glycine scanning (Non Patent Literature 5) was prepared by the same technique as described above. The presence or absence of binding of an IgE antibody present in the serum of a patient to each peptide fragment was measured by the same technique as described above.
Chemiluminescence intensity in images obtained by measurement was converted into a numeric value in the same manner as in (A). Numeric values determined from images obtained from secondary antibody measurement values were used as control values. The control value of each peptide was subtracted from numeric values determined from images obtained from results about the serum of 17 patients (patient Nos. P1-P17). […]

Test [2] relates to IgE antibody present in the serum of a latex-allergic patient. Briefly: Latex epitope mapping (1): array of overlapping 15-amino-acid peptides. Format: binding, human. The conditions noted are these: 15-residue peptides; serum of 17 latex-allergic patients; chemiluminescence difference from N2nd value of at least 35,000 = bound. How it is done: Epitope mapping was carried out using a library of overlapping peptides (length: 15 amino acids) corresponding to the amino acid sequences identified as allergy components of latex. Specifically, the library of overlapping peptides was prepared on the basis of the amino acid sequences of SEQ ID NOs: 2 and 4.
The peptides to be synthesized were shifted by 10 amino acids.
For preparation of peptide arrays, the Intavis CelluSpots™ technique was used. Specifically, the peptide arrays were prepared by the following procedure: (1) synthesizing peptides of interest on amino-modified cellulose disks using an automated chemical synthesis apparatus (Intavis MultiPep RS), (2) dissolving the amino-modified cellulose disks to obtain a cellulose-bound peptide solution, and (3) spotting the cellulose-bound peptides onto coated glass slides. The details of each procedure are as described below.
The presence or absence of binding, to each peptide fragment, of an IgE antibody present in the serum of a latex-allergic patient was measured through antigen-antibody reaction using the peptide arrays. The measurement was carried out according to the following procedure.
(1) The peptides were shaken at room temperature for 1 hour in Pierce Protein-Free (PBS) Blocking Buffer (produced by Thermo Fisher Scientific). (2) The peptide arrays were shaken at overnight at 4° C. in 2% serum/Pierce Protein-Free (PBS) Blocking Buffer (produced by Thermo Fisher Scientific). (3) The peptide arrays were washed with PBST (a PBS buffer containing […] Tween 20 nonionic surfactant) for 5 minutes (×3). (4) Anti-human IgE antibody-HRP (1:20,000, Pierce Protein-Free (PBS) Blocking Buffer (produced by Thermo Fisher Scientific)) was added thereto, and the peptide arrays were shaken at room temperature for 1 hour. (5) The peptide arrays were washed with PBST for 5 minutes (×3). (6) Pierce ECL Plus Western Blotting Substrate (produced by Thermo Fisher Scientific) was added thereto, and the peptide arrays were shaken at room temperature for 5 minutes. (7) The chemiluminescence of the peptides treated as described above in (1) to (6) was measured using Amersham Imager 600.
Chemiluminescence intensity in images obtained by the measurement described above in (7) was converted into a numeric value using ImageQuant TL (GE Healthcare). The second highest value among numeric values determined from images obtained from results about the serum of 4 non-latex-allergic subjects was defined as the N2nd value. The N2nd value of each peptide was subtracted from numeric values determined from images obtained from results about the serum of 17 patients (17 latex-allergic patients; respectively given patient Nos. P1-P17). It was determined that a peptide having a value of at least 35,000 as the difference was a peptide bound to an IgE antibody in a patient-specific manner.

[3] abbreviates: serum of latex-allergic patient P7.
Setting [4] is: serum of latex-allergic patient P12.
The mark [5] stands for this setting: serum of latex-allergic patient P17.

The values below come from patent publication US20210231678A1, “ALLERGY ANTIGEN AND EPITOPE THEREOF” (FUJITA ACADEMY, priority 2020, published 2021).

Consider “107 (YDDKNGYSSS; epitope) [compound 107]”, for which the “epitope sequence grade for binding to IgE antibody” value (from here on “epitope sequence grade for binding”) in test [1] (serum of latex-allergic patient P5) is listed as “Preferably”. In the case of 109 (WSKFYDDK; epitope) [compound 109], the “epitope sequence grade for binding” value in test [1] (setting [3]) is on record as “Key”.

Consider “110 (YDDKNGYSSS; epitope) [compound 110]”, for which the “epitope sequence grade for binding” value in test [1] (setting [3]) is “Preferably”. “112 (WSKFYDDKNG; epitope) [compound 112]”: the “epitope sequence grade for binding” value in test [1] (setting [4]) was “More preferably”.

Regarding 113 (WSKFYDDKN; epitope) [compound 113], in test [1] (setting [4]), the “epitope sequence grade for binding” value is listed as “Preferably”. As to 114 (KFYDDK; epitope) [compound 114], in test [1] (setting [4]), the “epitope sequence grade for binding” value is recorded as “Key”. Regarding 115 (WSKFYDDKN; epitope) [compound 115], in test [1] (setting [5]), the “epitope sequence grade for binding” value is “More preferably”. Take 116 (WSKFYD; epitope) [compound 116]: the “epitope sequence grade for binding” value in test [1] (setting [5]) is recorded as “Preferably”.

Turning to 117 (SKFYD; epitope) [compound 117], in test [1] (setting [5]), the “epitope sequence grade for binding” value was “Key”. Same read-out and setting: to “118 (YDDKNGYSSS; epitope) [compound 118]” belongs “Preferably”; to 119 (DKNGYSSS; epitope) [compound 119], “Key”. On to “DLKSYKSNSVATDIY (epitope) [SEQ ID NO: 35]”, for which the “patient-specific binding of IgE antibody to peptide” value (“patient-specific binding” for short) in test [2] is “confirmed to bind”. As for KPLN (epitope) [SEQ ID NO: 30], the “confirmed as epitope binding to IgE antibodies” value (shortened to “confirmed as epitope binding”) in test [1] is listed as “confirmed as epitopes binding to IgE antibodies”.

Turning to “KPYDKPLNDRYSYKN (epitope) [SEQ ID NO: 25]”, in test [2], the “patient-specific binding” value is recorded as “confirmed to bind”. As for KVGK (epitope) [SEQ ID NO: 78], the “confirmed as epitope binding” value in test [1] is “confirmed as epitopes binding to IgE antibodies”.

As to “PLTEDNFVIQKPYDK (epitope) [SEQ ID NO: 5]”, the “patient-specific binding” value in test [2] was “confirmed to bind”. On to QKPY (epitope) [SEQ ID NO: 6], for which the “confirmed as epitope binding” value in test [1] was “confirmed as epitopes binding to IgE antibodies”.

“VNVIHKVGKGEITVF (epitope) [SEQ ID NO: 68]”: the “patient-specific binding” value in test [2] is “confirmed to bind”.

On to “WSKFYDDKNGYSSSI (epitope) [SEQ ID NO: 83]”, for which the “patient-specific binding” value in test [2] is “confirmed to bind”.
